Measured values reported in patent US7361645B2, “Androgenic 7-substituted 11-halogen steroids” (Bayer Schering Pharma AG, priority 2001, dated 2008).
Values joined by “and” are separate entries in the source; they are usually repeats but may differ in a detail not shown here. Identical values can stand only once.

How the values were obtained:
[1] = system: M. levator ani; assay: Hershberger test, juvenile castrated male rat: M. levator ani weight; assay type: in vivo; settings: ORX juvenile rats, 7 days
Description: (§1) The test by Hershberger et al. (1953) is used as a screening test method for detecting androgenic properties:
(§2) Principle. The function and size of the accessory reproductive glands (seminal vesicles, prostate) and of the muscle (e.g. M. levator ani) are androgen dependent. Castration leads to the atrophy of these organs, the substitution with androgenic compounds stimulates growth and function in a dose dependent manner.
(§3) Test description. In the juvenile male castrated rat, pharmacologically active agonists of androgens stimulate the growth of the prostate, seminal vesicles (androgenic property) and Musculus levator ani (anabolic property). The treatment for seven days of juvenile castrated male rats with daily administration of compound A: 11β-Fluoro-17β-hydroxy-7α-methyl-estr-4-en-3-one,(different doses), compound B: 7α-methyl-19-nortestosterone (different doses), testosterone propionate (reference) and benzylbenzoate/ricinus oil (solvent and control), respectively, was used to determine the androgenic and anabolic potency of eF-MENT. Analyses: relative weights of prostate, seminal vesicles and M. levator ani.
(§4) Animals: ORX, juvenile rats, duration of treatment: 7 days.

[2] = system: seminal vesicles; assay: Hershberger test, juvenile castrated male rat: seminal vesicles weight; assay type: in vivo; settings: ORX juvenile rats, 7 days
Description: as §1, §2, §3, §4

[3] = Stability in liver microsomes, mouse; assay type: in vitro ADME; settings: 3 μM
Description: (§5) The metabolic stability of the compounds has been tested in liver microsomes of various species (commercially available). It is possible to make predictions as to the first-pass-metabolism in human by using human test material. A rapid degradation of the test material gives hints at low oral bio-availability of the substance tested.
(§6) The amount of the remaining compound is quantified by comparison with the amount remaining after 0 mins.
(§7) Species Specific Stability of Test Compounds in Liver at a Concentration of 3 μM

[4] = system: prostate, seminal vesicles and M. levator ani; assay: Anabolic and androgenic activity in the juvenile male rat (Hershberger), overall; assay type: in vivo; settings: compared with prior art compound B
Description: as §1, §2, §3

[5] = system: prostate; assay: Hershberger test, juvenile castrated male rat: prostate weight; assay type: in vivo; settings: ORX juvenile rats, 7 days
Description: as §1, §2, §3, §4

[6] = Stability in liver microsomes, rat; assay type: in vitro ADME; settings: 3 μM
Description: as §5, §6, §7

[7] = Stability in liver microsomes of various species, overall; assay type: in vitro ADME; settings: compared with compounds of the prior art
Description: as §5, §6

[8] = Stability in liver microsomes, human; assay type: in vitro ADME; settings: 3 μM
Description: as §5, §6, §7

C[C@@H]1CC2=CC(=O)CC[C@@H]2[C@@H]2[C@@H]1[C@@H]1CC[C@H](O)[C@@]1(C)C[C@@H]2F [Compound A, 11β-Fluoro-17β-hydroxy-7α-methyl-estr-4-en-3-one]
M. levator ani Stimulation [mean] ([1]; dose 0.015 mg*kg^-1*day^-1): 79.5
M. levator ani rel. Weight ([1]; dose 0.015 mg*kg^-1*day^-1): 54.9 mg/100 g and 50.8 mg/100 g
M. levator ani Stimulation [mean] ([1]; dose 0.03 mg*kg^-1*day^-1): 93.3
M. levator ani rel. Weight ([1]; dose 0.03 mg*kg^-1*day^-1): 56.5 mg/100 g
M. levator ani Stimulation [mean] ([1]; dose 0.05 mg*kg^-1*day^-1): 118.0
M. levator ani rel. Weight ([1]; dose 0.05 mg*kg^-1*day^-1): 59.4 mg/100 g
M. levator ani Stimulation [mean] ([1]; dose 0.15 mg*kg^-1*day^-1): 154.5
M. levator ani Stimulation [mean] ([1]; dose 0.3 mg*kg^-1*day^-1): 180.4
M. levator ani rel. Weight ([1]; dose 0.3 mg*kg^-1*day^-1): 69.8 mg/100 g
M. levator ani Stimulation [mean] ([1]; dose 1.5 mg*kg^-1*day^-1): 181.0
M. levator ani rel. Weight ([1]; dose 1.5 mg*kg^-1*day^-1): 69.9 mg/100 g
Seminal vesicles Stimulation [mean] ([2]; dose 0.015 mg*kg^-1*day^-1): 18.6
Seminal vesicles rel. Gewicht ([2]; dose 0.015 mg*kg^-1*day^-1): 18.6 mg/100 g and 15.5 mg/100 g
Seminal vesicles Stimulation [mean] ([2]; dose 0.03 mg*kg^-1*day^-1): 35.6
Seminal vesicles rel. Gewicht ([2]; dose 0.03 mg*kg^-1*day^-1): 26.8 mg/100 g
Seminal vesicles Stimulation [mean] ([2]; dose 0.05 mg*kg^-1*day^-1): 59.2
Seminal vesicles rel. Gewicht ([2]; dose 0.05 mg*kg^-1*day^-1): 43.6 mg/100 g
Seminal vesicles Stimulation [mean] ([2]; dose 0.15 mg*kg^-1*day^-1): 85.5
Seminal vesicles rel. Gewicht ([2]; dose 0.15 mg*kg^-1*day^-1): 49.3 mg/100 g and 57.9 mg/100 g and 64.4 mg/100 g
Seminal vesicles Stimulation [mean] ([2]; dose 0.3 mg*kg^-1*day^-1): 144.8
Seminal vesicles rel. Gewicht ([2]; dose 0.3 mg*kg^-1*day^-1): 93.4 mg/100 g
Seminal vesicles Stimulation [mean] ([2]; dose 1.5 mg*kg^-1*day^-1): 189.3
Seminal vesicles rel. Gewicht ([2]; dose 1.5 mg*kg^-1*day^-1): 120.0 mg/100 g
(%) left unchanged after 30 min [3]: 20%
(%) left unchanged after 60 min [3]: 11%
activity profile (androgenic/anabolic) [4]: comparable to the prior art compound B
Prostate Stimulation [mean] ([5]; dose 0.015 mg*kg^-1*day^-1): 30.0
Prostate rel. Weight ([5]; dose 0.015 mg*kg^-1*day^-1): 19.7 mg/100 g and 18.5 mg/100 g
Prostate Stimulation [mean] ([5]; dose 0.03 mg*kg^-1*day^-1): 40.1
Prostate rel. Weight ([5]; dose 0.03 mg*kg^-1*day^-1): 25.2 mg/100 g
Prostate Stimulation [mean] ([5]; dose 0.05 mg*kg^-1*day^-1): 76.6
Prostate rel. Weight ([5]; dose 0.05 mg*kg^-1*day^-1): 34.1 mg/100 g
Prostate Stimulation [mean] ([5]; dose 0.15 mg*kg^-1*day^-1): 93.8
Prostate rel. Weight ([5]; dose 0.15 mg*kg^-1*day^-1): 41.7 mg/100 g and 44.9 mg/100 g and 47.5 mg/100 g
Prostate Stimulation [mean] ([5]; dose 0.3 mg*kg^-1*day^-1): 125.1
Prostate rel. Weight ([5]; dose 0.3 mg*kg^-1*day^-1): 59.5 mg/100 g
Prostate Stimulation [mean] ([5]; dose 1.5 mg*kg^-1*day^-1): 137.3
Prostate rel. Weight ([5]; dose 1.5 mg*kg^-1*day^-1): 64.6 mg/100 g
(%) left unchanged after 30 min [6]: 5%
(%) left unchanged after 60 min [6]: 7%
metabolic stability [7]: higher than that of compounds of the prior art
(%) left unchanged after 30 min [8]: 59%
(%) left unchanged after 60 min [8]: 41%

C[C@@H]1CC2=CC(=O)CC[C@@H]2[C@H]2CC[C@]3(C)[C@@H](O)CC[C@H]3[C@@H]21 [Compound B, 7α-methyl-19-nortestosterone, reference compound]
M. levator ani Stimulation [mean] ([1]; dose 0.005 mg*kg^-1*day^-1): 71.3
M. levator ani rel. Weight ([1]; dose 0.005 mg*kg^-1*day^-1): 36.6 mg/100 g
M. levator ani Stimulation [mean] ([1]; dose 0.015 mg*kg^-1*day^-1): 92.6
M. levator ani rel. Weight ([1]; dose 0.015 mg*kg^-1*day^-1): 38.1 mg/100 g and 53.7 mg/100 g
M. levator ani Stimulation [mean] ([1]; dose 0.05 mg*kg^-1*day^-1): 150.7
M. levator ani rel. Weight ([1]; dose 0.05 mg*kg^-1*day^-1): 48.1 mg/100 g and 59.4 mg/100 g
M. levator ani Stimulation [mean] ([1]; dose 0.15 mg*kg^-1*day^-1): 283.4
M. levator ani rel. Weight ([1]; dose 0.15 mg*kg^-1*day^-1): 59.4 mg/100 g
Seminal vesicles Stimulation [mean] ([2]; dose 0.005 mg*kg^-1*day^-1): 4.6
Seminal vesicles rel. Gewicht ([2]; dose 0.005 mg*kg^-1*day^-1): 9.2 mg/100 g
Seminal vesicles Stimulation [mean] ([2]; dose 0.015 mg*kg^-1*day^-1): 17.0
Seminal vesicles rel. Gewicht ([2]; dose 0.015 mg*kg^-1*day^-1): 13.6 mg/100 g and 19.2 mg/100 g
Seminal vesicles Stimulation [mean] ([2]; dose 0.05 mg*kg^-1*day^-1): 51.8
Seminal vesicles rel. Gewicht ([2]; dose 0.05 mg*kg^-1*day^-1): 36.8 mg/100 g and 39.0 mg/100 g
Seminal vesicles Stimulation [mean] ([2]; dose 0.15 mg*kg^-1*day^-1): 87.8
Seminal vesicles rel. Gewicht ([2]; dose 0.15 mg*kg^-1*day^-1): 65.5 mg/100 g
(%) left unchanged after 30 min [3]: 4%
(%) left unchanged after 60 min [3]: 4%
Prostate Stimulation [mean] ([5]; dose 0.005 mg*kg^-1*day^-1): 4.3
Prostate rel. Weight ([5]; dose 0.005 mg*kg^-1*day^-1): 8.9 mg/100 g
Prostate Stimulation [mean] ([5]; dose 0.015 mg*kg^-1*day^-1): 24.0
Prostate rel. Weight ([5]; dose 0.015 mg*kg^-1*day^-1): 14.6 mg/100 g and 20.0 mg/100 g
Prostate Stimulation [mean] ([5]; dose 0.05 mg*kg^-1*day^-1): 51.3
Prostate rel. Weight ([5]; dose 0.05 mg*kg^-1*day^-1): 24.7 mg/100 g and 31.7 mg/100 g
Prostate Stimulation [mean] ([5]; dose 0.15 mg*kg^-1*day^-1): 90.2
Prostate rel. Weight ([5]; dose 0.15 mg*kg^-1*day^-1): 40.6 mg/100 g
(%) left unchanged after 30 min [6]: 4%
(%) left unchanged after 60 min [6]: 6%
(%) left unchanged after 30 min [8]: 37%
(%) left unchanged after 60 min [8]: 19%
